Laboratory results as given in ChEMBL document CHEMBL1909046, “DrugMatrix in vitro pharmacology data”.

What was measured:
[1] = target: C-C chemokine receptor type 2 (Homo sapiens, UniProt P41597); format: cell membranes, CHO-K1, Membrane; conditions: cho-k1; further: in other assays of this panel Not Active means under 50% inhibition at 10 µM
[2] = target: D(1A) dopamine receptor (Homo sapiens, UniProt P21728); test: DRUGMATRIX: Dopamine D1 radioligand binding (ligand: [3H] SCH-23390); format: cell membranes, Membrane; conditions: cho; Not Active = under 50% inhibition at 10 µM
D(1A) dopamine receptor, sequence (P21728 whole entry): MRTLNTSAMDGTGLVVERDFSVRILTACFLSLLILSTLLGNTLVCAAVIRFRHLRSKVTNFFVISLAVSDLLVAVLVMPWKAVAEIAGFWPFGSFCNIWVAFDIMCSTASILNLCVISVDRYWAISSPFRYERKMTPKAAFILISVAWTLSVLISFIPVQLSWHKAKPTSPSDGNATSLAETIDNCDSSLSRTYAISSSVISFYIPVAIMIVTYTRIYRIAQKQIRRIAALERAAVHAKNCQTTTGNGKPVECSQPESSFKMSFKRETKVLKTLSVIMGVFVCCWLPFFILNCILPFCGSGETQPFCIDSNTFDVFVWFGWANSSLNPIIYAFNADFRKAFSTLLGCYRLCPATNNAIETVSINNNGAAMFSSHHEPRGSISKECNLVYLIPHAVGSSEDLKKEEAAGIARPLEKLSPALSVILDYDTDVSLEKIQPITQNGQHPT

[3] = DRUGMATRIX: Nicotinic Acetylcholine radioligand binding (ligand: [125I] Epibatidine); format: cell membranes, Membrane; conditions: imr-32; Not Active = under 50% inhibition at 10 µM
[4] = target: T1, Alpha-2A adrenergic receptor (Homo sapiens, UniProt P08913); format: cell membranes, Sf9, Membrane; conditions: sf9; further: in other assays of this panel Not Active means under 50% inhibition at 10 µM
T1 sequence (P08913 whole entry): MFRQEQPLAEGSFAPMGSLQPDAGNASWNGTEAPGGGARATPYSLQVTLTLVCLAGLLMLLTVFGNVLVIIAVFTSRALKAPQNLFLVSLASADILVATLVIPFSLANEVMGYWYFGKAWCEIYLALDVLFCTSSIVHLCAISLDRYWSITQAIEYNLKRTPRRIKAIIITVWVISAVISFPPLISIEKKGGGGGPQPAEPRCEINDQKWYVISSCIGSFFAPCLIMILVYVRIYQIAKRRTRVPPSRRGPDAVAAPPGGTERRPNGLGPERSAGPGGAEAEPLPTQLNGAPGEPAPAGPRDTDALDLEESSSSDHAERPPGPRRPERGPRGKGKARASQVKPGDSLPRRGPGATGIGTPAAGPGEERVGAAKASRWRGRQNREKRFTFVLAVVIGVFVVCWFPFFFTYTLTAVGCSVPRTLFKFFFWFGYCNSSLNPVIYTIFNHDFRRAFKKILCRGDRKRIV

[5] = target: Insulin receptor (Rattus norvegicus, UniProt P15127); format: cell membranes, Wistar, Liver, Membrane; further: in other assays of this panel Not Active means under 50% inhibition at 10 µM
Insulin receptor, sequence (P15127 27-759 limits assumed): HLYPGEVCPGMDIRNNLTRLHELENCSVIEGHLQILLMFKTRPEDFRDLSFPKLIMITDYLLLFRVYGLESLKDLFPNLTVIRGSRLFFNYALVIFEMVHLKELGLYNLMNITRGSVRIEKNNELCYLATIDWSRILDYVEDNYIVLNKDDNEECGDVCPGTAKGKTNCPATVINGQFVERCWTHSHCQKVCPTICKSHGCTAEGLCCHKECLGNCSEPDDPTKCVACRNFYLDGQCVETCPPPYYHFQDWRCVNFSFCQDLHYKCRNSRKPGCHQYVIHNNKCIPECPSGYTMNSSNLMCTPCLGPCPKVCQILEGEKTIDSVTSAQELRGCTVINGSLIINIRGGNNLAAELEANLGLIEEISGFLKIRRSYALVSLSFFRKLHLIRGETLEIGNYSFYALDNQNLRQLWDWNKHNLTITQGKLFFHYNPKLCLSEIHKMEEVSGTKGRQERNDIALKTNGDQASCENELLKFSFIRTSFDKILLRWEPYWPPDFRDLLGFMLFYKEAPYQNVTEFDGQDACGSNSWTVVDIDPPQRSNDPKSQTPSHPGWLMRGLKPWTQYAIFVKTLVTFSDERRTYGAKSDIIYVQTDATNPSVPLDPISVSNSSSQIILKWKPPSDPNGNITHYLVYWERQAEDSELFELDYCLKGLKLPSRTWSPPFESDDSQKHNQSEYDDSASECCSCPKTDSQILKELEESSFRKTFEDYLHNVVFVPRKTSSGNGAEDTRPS
Insulin receptor, sequence (P15127 764-1383 limits assumed): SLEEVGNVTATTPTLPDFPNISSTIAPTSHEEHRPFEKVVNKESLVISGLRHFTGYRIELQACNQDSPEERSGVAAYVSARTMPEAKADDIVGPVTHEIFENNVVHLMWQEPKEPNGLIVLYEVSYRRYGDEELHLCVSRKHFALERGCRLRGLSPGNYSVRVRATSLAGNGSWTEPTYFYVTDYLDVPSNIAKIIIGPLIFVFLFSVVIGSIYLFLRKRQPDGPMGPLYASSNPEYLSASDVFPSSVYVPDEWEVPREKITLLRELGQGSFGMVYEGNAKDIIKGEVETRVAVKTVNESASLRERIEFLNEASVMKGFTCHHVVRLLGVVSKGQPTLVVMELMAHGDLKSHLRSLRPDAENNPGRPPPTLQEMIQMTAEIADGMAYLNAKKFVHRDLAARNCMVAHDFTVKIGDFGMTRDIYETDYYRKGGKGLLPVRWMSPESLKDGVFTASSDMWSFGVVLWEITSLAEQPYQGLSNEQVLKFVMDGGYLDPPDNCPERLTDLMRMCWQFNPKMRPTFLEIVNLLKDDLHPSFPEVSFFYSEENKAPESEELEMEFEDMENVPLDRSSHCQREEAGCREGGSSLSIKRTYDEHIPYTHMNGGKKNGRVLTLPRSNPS

[6] = target: 5-hydroxytryptamine receptor 4 (Cavia porcellus, UniProt O70528); format: cell membranes, Dunkin-Hartley, Striatum, Membrane; further: in other assays of this panel Not Active means under 50% inhibition at 10 µM
5-hydroxytryptamine receptor 4, sequence (O70528 whole entry): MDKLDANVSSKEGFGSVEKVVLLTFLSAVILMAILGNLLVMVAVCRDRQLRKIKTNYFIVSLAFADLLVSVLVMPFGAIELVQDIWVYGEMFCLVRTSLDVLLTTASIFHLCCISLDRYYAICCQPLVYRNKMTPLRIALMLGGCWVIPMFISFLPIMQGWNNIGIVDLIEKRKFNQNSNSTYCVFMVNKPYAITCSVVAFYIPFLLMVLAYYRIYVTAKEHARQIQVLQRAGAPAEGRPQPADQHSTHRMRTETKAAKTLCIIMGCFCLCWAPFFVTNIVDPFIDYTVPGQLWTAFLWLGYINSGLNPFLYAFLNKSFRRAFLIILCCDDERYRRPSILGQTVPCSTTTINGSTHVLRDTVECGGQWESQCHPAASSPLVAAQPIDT

[7] = target: Aldo-keto reductase family 1 member B1 (Rattus norvegicus, UniProt P07943); test: biochemical; format: tissue-based, Lens of camera-type eye
[8] = DRUGMATRIX: Interleukin IL-1 radioligand binding (ligand: [125I] interleukin 1beta); format: cell membranes, Membrane; conditions: nih3t3; Not Active = under 50% inhibition at 10 µM
[9] = target: Substance-P receptor (Homo sapiens, UniProt P25103); format: cell membranes, Membrane; conditions: cho; further: in other assays of this panel Not Active means under 50% inhibition at 10 µM
Substance-P receptor, sequence (P25103 whole entry): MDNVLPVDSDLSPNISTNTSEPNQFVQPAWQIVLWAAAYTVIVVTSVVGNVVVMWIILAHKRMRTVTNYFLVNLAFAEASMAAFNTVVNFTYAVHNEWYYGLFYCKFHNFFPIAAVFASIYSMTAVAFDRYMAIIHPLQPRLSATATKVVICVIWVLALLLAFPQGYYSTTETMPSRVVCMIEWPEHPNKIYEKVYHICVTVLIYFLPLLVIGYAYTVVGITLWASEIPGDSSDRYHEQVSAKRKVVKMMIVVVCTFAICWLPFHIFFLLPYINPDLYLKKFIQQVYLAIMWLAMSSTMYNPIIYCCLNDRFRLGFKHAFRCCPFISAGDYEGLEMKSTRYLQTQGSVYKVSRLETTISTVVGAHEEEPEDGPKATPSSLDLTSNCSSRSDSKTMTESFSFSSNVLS

[10] = target: 5-hydroxytryptamine receptor 1B (Rattus norvegicus, UniProt P28564); format: cell membranes, Wistar, Cerebral cortex, Membrane; further: in other assays of this panel Not Active means under 50% inhibition at 10 µM
5-hydroxytryptamine receptor 1B, sequence (P28564 whole entry): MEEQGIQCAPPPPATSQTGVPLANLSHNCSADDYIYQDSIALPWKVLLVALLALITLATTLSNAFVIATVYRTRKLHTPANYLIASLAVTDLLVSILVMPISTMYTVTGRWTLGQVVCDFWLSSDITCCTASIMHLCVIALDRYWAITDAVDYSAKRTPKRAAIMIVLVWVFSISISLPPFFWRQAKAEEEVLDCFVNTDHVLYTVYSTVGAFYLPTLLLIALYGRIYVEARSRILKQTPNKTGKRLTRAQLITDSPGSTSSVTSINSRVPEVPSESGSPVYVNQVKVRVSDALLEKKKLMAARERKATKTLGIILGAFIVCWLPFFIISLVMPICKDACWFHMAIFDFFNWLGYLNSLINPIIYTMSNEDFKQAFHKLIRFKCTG

[11] = DRUGMATRIX: Serotonin (5-Hydroxytryptamine) 5-HT3 radioligand binding (ligand: [3H] GR-65630); format: cell membranes, Membrane; conditions: hek293; Not Active = under 50% inhibition at 10 µM

C-C chemokine receptor type 2, sequence (P41597 whole entry): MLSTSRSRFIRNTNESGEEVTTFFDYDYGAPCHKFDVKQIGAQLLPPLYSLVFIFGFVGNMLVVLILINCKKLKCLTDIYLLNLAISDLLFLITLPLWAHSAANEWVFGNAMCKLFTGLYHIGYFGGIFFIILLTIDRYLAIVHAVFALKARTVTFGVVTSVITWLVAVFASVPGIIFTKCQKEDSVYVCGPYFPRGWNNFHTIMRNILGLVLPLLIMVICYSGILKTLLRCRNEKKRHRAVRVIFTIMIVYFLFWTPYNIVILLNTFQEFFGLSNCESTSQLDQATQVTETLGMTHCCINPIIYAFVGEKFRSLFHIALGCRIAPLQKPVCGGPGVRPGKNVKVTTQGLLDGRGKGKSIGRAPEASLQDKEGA

Cc1cc(C)nc(NS(=O)(=O)c2ccc(N)cc2)n1 [SULFAMETHAZINE]
Not Active: Ki [1] | IC50 [2] | IC50 [3] | Ki [3] | IC50 [4] | IC50 [5] | IC50 [6] | IC50 [7] | IC50 [8] | Ki [8] | IC50 [9] | IC50 [10] | IC50 [11] | Ki [11]

C[C@]1(Cn2ccnn2)[C@H](C(=O)O)N2C(=O)C[C@H]2S1(=O)=O [TAZOBACTAM]
Not Active: IC50 [1] | IC50 [2] | IC50 [3] | Ki [3] | IC50 [4] | IC50 [5] | IC50 [6] | IC50 [7] | IC50 [8] | Ki [8] | IC50 [9] | IC50 [10] | IC50 [11] | Ki [11]

CN1C(C(=O)Nc2ccccn2)=C(O)c2sccc2S1(=O)=O [TENOXICAM]
Not Active: IC50 [1] | IC50 [2] | IC50 [3] | Ki [3] | IC50 [4] | IC50 [5] | IC50 [6] | IC50 [7] | IC50 [8] | Ki [8] | IC50 [9] | IC50 [10] | IC50 [11] | Ki [11]

O=C1CCC(N2C(=O)c3ccccc3C2=O)C(=O)N1 (centres undefined) [THALIDOMIDE]
Not Active: IC50 [1] | IC50 [2] | IC50 [3] | Ki [3] | IC50 [4] | IC50 [5] | IC50 [6] | IC50 [7] | IC50 [8] | Ki [8] | IC50 [9] | IC50 [10] | IC50 [11] | Ki [11]

Cc1cccc(Nc2ccncc2S(=O)(=O)NC(=O)NC(C)C)c1 [TORSEMIDE]
Not Active: IC50 [1] | IC50 [2] | IC50 [3] | Ki [3] | IC50 [4] | IC50 [5] | IC50 [6] | IC50 [7] | IC50 [8] | Ki [8] | IC50 [9] | IC50 [10] | IC50 [11] | Ki [11]

CC(C)C[C@H](NC(=O)[C@@H](O)[C@H](N)Cc1ccccc1)C(=O)O [UBENIMEX]
Not Active: IC50 [1] | IC50 [2] | IC50 [3] | Ki [3] | IC50 [4] | IC50 [5] | IC50 [6] | IC50 [7] | IC50 [8] | Ki [8] | IC50 [9] | IC50 [10] | IC50 [11] | Ki [11]

Cc1onc(-c2ccccc2)c1-c1ccc(S(N)(=O)=O)cc1 [VALDECOXIB]
Not Active: IC50 [1] | IC50 [2] | IC50 [3] | Ki [3] | IC50 [4] | IC50 [5] | IC50 [6] | IC50 [7] | IC50 [8] | Ki [8] | IC50 [9] | IC50 [10] | IC50 [11] | Ki [11]

CC[C@]1(O)C[C@@H]2CN(CCc3c([nH]c4ccccc34)[C@@](C(=O)OC)(c3cc4c(cc3OC)N(C)[C@H]3[C@@](O)(C(=O)OC)[C@H](OC(C)=O)[C@]5(CC)C=CCN6CC[C@]43[C@@H]65)C2)C1 [VINBLASTINE]
Not Active: IC50 [1] | IC50 [2] | IC50 [3] | Ki [3] | IC50 [4] | IC50 [5] | IC50 [6] | IC50 [7] | IC50 [8] | Ki [8] | IC50 [9] | IC50 [10] | IC50 [11] | Ki [11]

CC(=O)CC(c1ccccc1)c1c(O)c2ccccc2oc1=O (centres undefined) [WARFARIN]
Not Active: IC50 [1] | IC50 [2] | IC50 [3] | Ki [3] | IC50 [4] | IC50 [5] | IC50 [6] | IC50 [7] | IC50 [8] | Ki [8] | IC50 [9] | IC50 [10] | IC50 [11] | Ki [11]

C[C@@H](N)[C@H]1CC[C@H](C(=O)Nc2ccncc2)CC1 [Y-27632]
Not Active: IC50 [1] | IC50 [2] | IC50 [3] | Ki [3] | IC50 [4] | IC50 [5] | IC50 [6] | IC50 [7] | IC50 [8] | Ki [8] | IC50 [9] | IC50 [10] | IC50 [11] | Ki [11]

[Cl-].[Cl-].[Zn+2] [ZINC CHLORIDE]
Not Active: IC50 [1] | IC50 [2] | IC50 [3] | Ki [3] | IC50 [4] | IC50 [5] | IC50 [6] | IC50 [7] | IC50 [8] | Ki [8] | IC50 [9] | IC50 [10] | IC50 [11] | Ki [11]
